One data set has as its system S. mansoni schistosomula. As to the kind of experiment: S. mansoni schistosomula high-throughput phenotype and motility screen (Roboworm), 72 h. The data set is classed as cell-based, Schistosoma mansoni. The procedure, abridged:
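Newly transformed schistosomula (S. mansoni PR-1, mechanically transformed cercariae), 120 per well, exposed to compounds at a single concentration or two-fold titrations for 72 h at 37 °C, 5% CO2.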

The next data set has as its system S. mansoni adult worms. As to the kind of experiment: S. mansoni adult worm motility screen (WormassayGP2), 72 h. The data set is classed as cell-based, Schistosoma mansoni. Summed up:
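Seven-week adult S. mansoni worms, perfused from infected mice, were exposed in duplicate (1–3 pairs/well) to […] compound in 0.5% DMSO for 72 h at 37 °C, 5% CO2. Motility was scored by image-based WormassayGP2, and eggs were counted afterwards.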

Data set [1] deals with S. mansoni. Further details: method as in PMID 24416463. Conditions: cited from earlier work.
In data set [2] the test system is S. mansoni. Further details: method as in PMID 24416463. Conditions: cited from earlier work. This is another data set of the same source.
A short description of data set [3]: HepG2 MTT cytotoxicity assay. Conditions: human, HepG2 cells. The protocol:
Initially the cells were handled under sterile conditions and grown at 37 °C in a humidified atmosphere containing 5% CO2. Cytotoxicity was evaluated by way of a 3-(4, 5- dimethylthiazol-2-yl)-2,5-diphenyl tetrazolium bromide (MTT) assay as previously described. The cells were counted in a dual chamber counting slide using the BIORAD TC-10 Automated cell counter, seeded in a 96-well plate (Fisher Scientific, Loughborough, UK) at a density of 2 × 10^4 cells/well and incubated in an atmosphere of 5% CO2 at 37 °C. […] The absorbance readings (at 570 nm) of the soluble formazan crystals were recorded using PolarStar Omega plate reader (BMG-Labtech). […] The latter was used to calculate the selectivity index (SI) of the compounds presented herein.
On the technique in general: Tetrazolium assays rely on reduction of a dye to a coloured formazan, in cell work by metabolically active cells.

Like-named read-outs stand apart in the source and are kept apart here.

As usually defined, the EC50 is the concentration giving half of the maximal effect. On to “N2, N3-bis(4-bromophenyl)quinoxaline-2,3-diamine [Compound 38, reference compound]”, for which the EC50 is more than 2 µM in the data set on S. mansoni schistosomula (72 h, read-out: EC50 on schistosomula (bounds and ranges given)); 2.44 µM in the data set on S. mansoni schistosomula (Table 2, average of phenotype and motility EC50, 72 h, read-out: Activity on schistosomula (EC50, μM - 72 h) Average); 1.21 µM in the data set on S. mansoni schistosomula (Table 2, motility, 72 h, three replicate titrations (0.313–10 μM), read-out: Activity on schistosomula (EC50, μM - 72 h) M); 3.67 µM with S. mansoni schistosomula (Table 2, phenotype, 72 h, three replicate titrations (0.313–10 μM), read-out: Activity on schistosomula (EC50, μM - 72 h) P); 0.162 µM with S. mansoni adult worms (Table 2, 72 h, titrations 0.0095–5 μM, WormassayGP2, read-out: Activity on adult worms (EC50, μM - 72 h) Motility). In addition, the Worm burden reduction was 53.4% in the data set on S. mansoni [1] (four per oral doses of 100 mg/kg, delivered every 4 h) and 40.8% in the data set with S. mansoni [1] (single per oral dose of 400 mg/kg). Moreover, the “In vitro activity on S. mansoni” value in the data set on S. mansoni [2] is on record as “sub micromolar range”.
Usually CC50 stands for the concentration giving 50% cytotoxicity. Higher therefore signals better tolerance by the cells. As for `O=[N+]([O-])c1ccc2nc(Nc3ccccc3)c(Nc3ccccc3)nc2c1` [Compound 19], in the data set on S. mansoni schistosomula (10 μM, 72 h), the “Activity on schistosomula in the primary screen at 10 μM” value is reported as “retained activity”. The EC50 with S. mansoni schistosomula (Schistosoma mansoni, 72 h, Table 1, 72 h, two dose response titrations (0.313–10 μM), 95% CI in brackets, read-out: Activity on schistosomula (EC50, μM - 72 h) Motility) was 1.35 µM; in the data set on S. mansoni schistosomula (Schistosoma mansoni, 72 h, Table 1, 72 h, two dose response titrations (0.313–10 μM), 95% CI in brackets, read-out: Activity on schistosomula (EC50, μM - 72 h) Phenotype) it was 1.89 µM; with S. mansoni schistosomula (Schistosoma mansoni, 72 h, Table 1, mean of phenotype and motility EC50, 72 h, read-out: Activity on schistosomula (EC50, μM - 72 h) Average) it was 1.62 µM; in the data set on S. mansoni schistosomula (Schistosoma mansoni, Table 3, read-out: Anti-schistosomal activity EC50 (μM) Schistosomula Motility), 1.35 µM; in the data set on S. mansoni schistosomula (Schistosoma mansoni, Table 3, read-out: Anti-schistosomal activity EC50 (μM) Schistosomula Phenotype) it was 1.89 µM. In addition, the “Effect on adult worm motility at 3.15 μM” value with S. mansoni adult worms (3.15 μM, lowest concentration tested) is “complete cessation of worm mobility”. The “Effect on adult worm motility at 12.5 and 6.25 μM” value with S. mansoni adult worms (12.5 and 6.25 μM) is “particularly active”. The same molecule displayed a CC50 at 24 h in data set [3] of 12.6 µM.
